Laboratory results reported in US20240216412A1, “OXIDIZED NICOTINAMIDE ADENINE DINUCLEOTIDE (NAD+) PRECURSOR TREATMENT FOR HEART FAILURE ALLEVIATION INDEPENDENT OF MITOCHONDRIAL PROTEIN DEACETYLATION” (University of Washington, priority 2022, published 2024).

Key:
[1] = tested on: chronic pressure overload (TAC) induced heart failure in WT and Sirt3Ko mice; assay: Transthoracic echocardiography after transverse aortic constriction (TAC) or sham surgery; format: in vivo, mouse; conditions: for EF / FS / IVS; s / LV Mass / LV Mass (corr.) / LV Vol; d / LV Vol; s / LVID; d / LVID; s / LVPW; d / LVPW; s: NR; for IVS; d: NR 500 mg/kg body weight daily for eight weeks
From the text: The present disclosure provides boosting intracellular NAD^+ with nicotinamide riboside chloride (NR) to protect Sirtuin 3 (Sirt3) knockout mice from heart failure. NR is a natural NAD precursor that bypasses nicotinamide phosphoribosyltransferase (NAMPT) to stimulate intracellular NAD^+ synthesis via the Nrk reaction (Bieganowski and Brenner, 2004; Canto et al., 2012; Diguet et al., 2018; Trammell et al., 2016). […] Immunoblotting confirmed the absence of Sirt3 and increased lysine acetylation in mitochondrial extracts from the knockout hearts (FIG. 9A). Pressure overload was induced by transverse aortic constriction (TAC) surgery for 12 weeks. Intracellular NAD^+ level was increased when mice had already developed cardiac hypertrophy and dysfunction, to model a therapeutic approach (FIG. 1A). After 4 weeks of chronic pressure overload, cardiac function was assessed using trans-thoracic M-mode echocardiography.
Mice randomly received either NR (500 mg/kg body weight) (Canto et al., 2012) or vehicle saline daily for eight-weeks. Representative M-mode images for the echocardiography can be found in FIGS. 1C and 1D. Four weeks of chronic pressure overload caused similar declines in left ventricular fractional shortening (FS %) in mice randomized to NR or vehicle groups for either WT or Sirt3Ko (FIGS. 1E and 1F). […] Similar to NR treated WT, cardiac hypertrophy, left ventricular cavity dilation, and lung edema were less severe in Sirt3Ko TAO mice that received NR treatment (FIGS. 1B-1J). All echocardiography parameters can be found in Table 1 below.
All procedures involving animal use were approved by the Institutional Animal Care and Use Committee (IACUC) of the University of Washington. Wild-type mice (129S1/SvlmJ Stock No: 002448) and Sirtuin 3 knockout mice (129-Sirt3tm1.1Fwa/J Stock No: 012755) were purchased from Jackson Laboratories. All mice were housed at 22° C. with a 12-hr light, 12-hr dark cycle with free access to water and standard chow. Male mice were used for experiments in this study.
Transverse aortic constriction. Male mice (3-4 months old) underwent transverse aortic constriction (TAC) or sham surgery. Briefly, mice were anesthetized with an IP injection of 130 mg/kg ketamine and 8.8 mg/kg xylazine in saline. Mice were intubated with 20 G cannula and ventilated 140 breaths per minute by small animal TOPO ventilator (Kent Scientific). The aortic arch was exposed via a left thoracotomy and by carefully separating the thymus. A constriction of the transverse aorta was generated by tying a 6-0 Ethilon ligature against a 27-gauge blunt needle around the aorta between the brachiocephalic and left common carotid arteries. Promptly the needle was removed and the chest and skin were closed by 5-0 polypropylene suture. The animal was removed from ventilation and kept on a heating blanket during recovery from anesthesia. SR buprenorphine (0.05 mg/kg) was administered subcutaneously for analgesia. Sham operated mice underwent all the same procedures as TAC mice excluding the constriction of the aorta. All mice were monitored every 12 h during the first 72 h post-surgery, followed by daily visits over the next 4 weeks.
Transthoracic Echocardiography. Echocardiography of hearts was performed at indicated time after surgery using the VEVO 2100 high-frequency, high-resolution digital imaging system (VisualSonics) equipped with a MS400 Microscan Transducer on anesthetized mice (0.5%-2% isoflurane in 95% oxygen). Measurements were made when heart rate was >450 bpm. Cardiac function and geometry measurements were measured in parasternal short axis view. M-mode images were used for analysis and calculated by the average of at least three cardiac cycles and carried out in a blind fashion. Hearts were harvested at 12-week post-surgery for subsequent experiments and biochemical assays.

[2] = tested on: WT TAC heart transcriptome; assay: RNA sequencing with GSEA of TAC hearts; format: in vivo, mouse; conditions: NR treated TAC hearts vs vehicle
Procedure: RNA Sequencing. Total RNA was extracted from 30 mg of heart tissue using the Qiagen RNeasy kit. RNA Sequencing and quality control was performed BGI (BGISEQ-500). Data Analysis-RNAseq samples were aligned using Tophat (Trapnell et al., 2009) (version 2.0.13). Genelevel read counts were quantified using htseq-count (Anders et al., 2015). Genes expressed above 4TPM in at least 2 samples were used. In differential expression (DESeq), A gene to have total normalized reads above 10 across all samples. DeSeq (Anders and Huber, 2010) was used for differential gene expression analysis. Genes with fold change >1.5 and FDR <0.1 were considered differentially expressed. GSEA was performed using Broad Institute software against the Reactome database. Iregulon v1.3 was used to predict transcription factor binding motif. The following options were used: Motif collection 10 K (9713 PWMs), putative regulatory region 20 kb centered around TSS (7 species). Program default settings for Recovery and Transcription factor prediction options were selected for the analysis.

NC(=O)c1ccc[n+]([C@@H]2O[C@H](CO)[C@@H](O)[C@H]2O)c1 [NR, Nicotinamide riboside chloride]
Left ventricular cavity dilation ([1]; Sirt3Ko TAC mice, similar to NR treated WT): less severe
Advances of heart failure ([1]; Sirt3Ko TAC mice, vs vehicle treatment): protected the Sirt3Ko TAO mice from advances of heart failure
EF ([1]; Sirt3Ko, Sham): 71.3%
FS ([1]; Sirt3Ko, Sham): 39.7%
IVS; s ([1]; Sirt3Ko, Sham): 1.49 mm
LV Mass ([1]; Sirt3Ko, Sham): 146.9 mg
LV Mass (corr.) ([1]; Sirt3Ko, Sham): 117.5 mg
LV Vol; d ([1]; Sirt3Ko, Sham): 42.0 µL
LV Vol; s ([1]; Sirt3Ko, Sham): 12.1 µL
LVID; d ([1]; Sirt3Ko, Sham): 3.21 mm
LVID; s ([1]; Sirt3Ko, Sham): 1.94 mm
LVPW; d ([1]; Sirt3Ko, Sham): 1.30 mm
LVPW; s ([1]; Sirt3Ko, Sham): 1.69 mm
IVS; d ([1]; Sirt3Ko, Sham): 1.04 mm
EF ([1]; Sirt3Ko, TAC): 59.2%
FS ([1]; Sirt3Ko, TAC): 30.9%
IVS; s ([1]; Sirt3Ko, TAC): 1.67 mm
LV Mass ([1]; Sirt3Ko, TAC): 168.9 mg
LV Mass (corr.) ([1]; Sirt3Ko, TAC): 135.1 mg
LV Vol; d ([1]; Sirt3Ko, TAC): 47.8 µL
LV Vol; s ([1]; Sirt3Ko, TAC): 19.8 µL
LVID; d ([1]; Sirt3Ko, TAC): 3.39 mm
LVID; s ([1]; Sirt3Ko, TAC): 2.35 mm
LVPW; d ([1]; Sirt3Ko, TAC): 1.22 mm
LVPW; s ([1]; Sirt3Ko, TAC): 1.51 mm
IVS; d ([1]; Sirt3Ko, TAC): 1.22 mm
Fractional shortening (FS %) ([1]; WT TAC mice, 8-week treatment): preserved FS %
EF ([1]; Wildtype, Sham): 78.9%
FS ([1]; Wildtype, Sham): 46.3%
IVS; s ([1]; Wildtype, Sham): 1.72 mm
LV Mass ([1]; Wildtype, Sham): 141.9 mg
LV Mass (corr.) ([1]; Wildtype, Sham): 113.5 mg
LV Vol; d ([1]; Wildtype, Sham): 37.3 µL
LV Vol; s ([1]; Wildtype, Sham): 7.9 µL
LVID; d ([1]; Wildtype, Sham): 3.07 mm
LVID; s ([1]; Wildtype, Sham): 1.65 mm
LVPW; d ([1]; Wildtype, Sham): 1.27 mm
LVPW; s ([1]; Wildtype, Sham): 1.64 mm
IVS; d ([1]; Wildtype, Sham): 1.12 mm
EF ([1]; Wildtype, TAC): 62.5%
FS ([1]; Wildtype, TAC): 32.7%
IVS; s ([1]; Wildtype, TAC): 1.78 mm
LV Mass ([1]; Wildtype, TAC): 183.9 mg
LV Mass (corr.) ([1]; Wildtype, TAC): 147.1 mg
LV Vol; d ([1]; Wildtype, TAC): 36.7 µL
LV Vol; s ([1]; Wildtype, TAC): 13.7 µL
LVID; d ([1]; Wildtype, TAC): 3.04 mm
LVID; s ([1]; Wildtype, TAC): 2.04 mm
LVPW; d ([1]; Wildtype, TAC): 1.52 mm
LVPW; s ([1]; Wildtype, TAC): 1.85 mm
IVS; d ([1]; Wildtype, TAC): 1.30 mm
Pathways of genes significantly downregulated (GSEA) [2]: enriched in pathways relating to collagen formation and extracellular matrix organization
Pathways of genes significantly upregulated (GSEA) [2]: enriched in pathways relating to mitochondrial metabolism
